These results are taken from patent US6960597B2, “Aza-bridged-bicyclic amino acid derivatives as α4 integrin antagonists” (Orth-McNeil Pharmaceutical, Inc., priority 2000, dated 2005).

Read-outs that look alike come from different tables or passages of the source.

One assay deals with T1, α4β1 integrin receptor (Homo sapiens, UniProt P05556+P13612).
T1 construct: Ramos Cell Adhesion Assay (α4β1 Mediated Adhesion/VCAM-1); endogenous in cells; host or cells: Ramos cells
Kind of assay: Ramos Cell Adhesion Assay (α4β1 Mediated Adhesion/VCAM-1). Type of assay: cell-based. The gist of the method: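 Plates coated overnight at 4° C with recombinant hVCAM-1 (4.0 μg/mL, pH 9.0), then blocked with PBS/1% BSA. Ramos cells labelled with 5 μM Calcein AM adhered 1 h at room temperature with compound; after washing, cells were lysed in SDS and fluorescence read at 485/530 nm.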

The target of the next assay is T2, human α4β7 (Homo sapiens, UniProt P13612+P26010).
T2 construct: expressed in transfected cells
T2 sequence (P13612 34-1032): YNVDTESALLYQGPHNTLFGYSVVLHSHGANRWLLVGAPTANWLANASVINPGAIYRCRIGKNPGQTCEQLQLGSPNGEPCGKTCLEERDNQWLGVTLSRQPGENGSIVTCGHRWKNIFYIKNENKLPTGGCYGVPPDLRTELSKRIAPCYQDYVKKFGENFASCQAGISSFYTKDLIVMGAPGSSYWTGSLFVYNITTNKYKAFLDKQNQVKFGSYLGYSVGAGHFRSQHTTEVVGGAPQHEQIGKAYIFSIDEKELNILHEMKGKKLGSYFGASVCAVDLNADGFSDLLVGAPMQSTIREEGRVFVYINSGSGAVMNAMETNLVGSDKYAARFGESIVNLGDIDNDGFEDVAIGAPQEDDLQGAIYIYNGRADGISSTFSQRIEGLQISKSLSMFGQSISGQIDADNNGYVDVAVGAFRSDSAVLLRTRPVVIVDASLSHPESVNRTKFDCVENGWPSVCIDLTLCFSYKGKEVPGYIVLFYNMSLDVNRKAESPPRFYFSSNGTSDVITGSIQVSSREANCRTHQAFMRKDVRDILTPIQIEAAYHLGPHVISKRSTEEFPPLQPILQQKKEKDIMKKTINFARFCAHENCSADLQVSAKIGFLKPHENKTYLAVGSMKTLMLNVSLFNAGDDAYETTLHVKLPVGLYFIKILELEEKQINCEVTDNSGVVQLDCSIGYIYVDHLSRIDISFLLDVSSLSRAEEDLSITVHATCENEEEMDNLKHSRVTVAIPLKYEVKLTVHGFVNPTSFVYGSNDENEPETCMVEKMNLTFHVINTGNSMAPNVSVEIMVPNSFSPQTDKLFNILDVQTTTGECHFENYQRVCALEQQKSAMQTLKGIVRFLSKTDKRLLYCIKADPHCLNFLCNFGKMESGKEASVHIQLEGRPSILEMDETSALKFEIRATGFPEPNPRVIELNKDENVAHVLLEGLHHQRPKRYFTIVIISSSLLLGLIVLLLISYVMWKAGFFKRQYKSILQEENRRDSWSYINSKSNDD
T2 sequence (P26010 20-798): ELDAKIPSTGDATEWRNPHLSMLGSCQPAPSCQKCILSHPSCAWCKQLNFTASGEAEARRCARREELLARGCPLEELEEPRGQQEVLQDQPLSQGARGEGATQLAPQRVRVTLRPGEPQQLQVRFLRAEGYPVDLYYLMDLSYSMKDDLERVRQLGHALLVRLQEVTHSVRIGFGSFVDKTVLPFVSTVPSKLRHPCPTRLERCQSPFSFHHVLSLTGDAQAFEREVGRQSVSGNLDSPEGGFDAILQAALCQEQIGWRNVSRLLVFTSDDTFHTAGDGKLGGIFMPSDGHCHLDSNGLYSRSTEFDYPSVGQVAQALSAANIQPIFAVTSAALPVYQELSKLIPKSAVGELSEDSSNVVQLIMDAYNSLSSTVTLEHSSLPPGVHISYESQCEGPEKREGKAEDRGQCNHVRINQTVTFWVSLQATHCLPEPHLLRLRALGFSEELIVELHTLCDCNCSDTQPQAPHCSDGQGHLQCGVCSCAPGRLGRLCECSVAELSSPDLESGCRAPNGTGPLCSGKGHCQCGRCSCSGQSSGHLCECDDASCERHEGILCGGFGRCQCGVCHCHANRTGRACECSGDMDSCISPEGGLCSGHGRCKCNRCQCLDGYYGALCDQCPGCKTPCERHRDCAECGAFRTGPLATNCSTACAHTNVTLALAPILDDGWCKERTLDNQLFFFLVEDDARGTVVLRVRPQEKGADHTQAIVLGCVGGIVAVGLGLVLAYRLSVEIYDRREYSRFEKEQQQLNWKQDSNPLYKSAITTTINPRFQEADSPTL
Put plainly: α4β7-K562 Cell Adhesion Assay (α4β7 Mediated Adhesion/VCAM-1). It counts as cell-based. The essentials:
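K562 cells stably expressing human α4β7, labelled with 5 μM Calcein AM, adhered for 1 h at room temperature to plates coated with recombinant hVCAM-1 (4.0 μg/mL) in the presence of compound. After washing, cells were lysed in Tris/SDS. Bound cells were read by fluorescence at 485/530 nm.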

The next assay concerns the target α4β1 (Homo sapiens, UniProt P05556+P13612). Particulars: cited from earlier work.
Assay [1] relates to heterotopic heart allograft. Particulars: hyperlipidemic rabbit; cited from earlier work.
Assay [2] relates to oxazolone-induced contact hypersensitivity. The settings on record: mouse; 6 mg/kg, sc; cited from earlier work.
Setting [3] is: Table III, read-out: Inhibition of Binding of Ramos Cells to Immobilized VCAM-1 IC50.
Setting [4] is: Table IV, read-out: Inhibition of Binding of K562 Cells to Immobilized VCAM-1 IC50.

T1 sequence (P05556 21-798, one chain of several): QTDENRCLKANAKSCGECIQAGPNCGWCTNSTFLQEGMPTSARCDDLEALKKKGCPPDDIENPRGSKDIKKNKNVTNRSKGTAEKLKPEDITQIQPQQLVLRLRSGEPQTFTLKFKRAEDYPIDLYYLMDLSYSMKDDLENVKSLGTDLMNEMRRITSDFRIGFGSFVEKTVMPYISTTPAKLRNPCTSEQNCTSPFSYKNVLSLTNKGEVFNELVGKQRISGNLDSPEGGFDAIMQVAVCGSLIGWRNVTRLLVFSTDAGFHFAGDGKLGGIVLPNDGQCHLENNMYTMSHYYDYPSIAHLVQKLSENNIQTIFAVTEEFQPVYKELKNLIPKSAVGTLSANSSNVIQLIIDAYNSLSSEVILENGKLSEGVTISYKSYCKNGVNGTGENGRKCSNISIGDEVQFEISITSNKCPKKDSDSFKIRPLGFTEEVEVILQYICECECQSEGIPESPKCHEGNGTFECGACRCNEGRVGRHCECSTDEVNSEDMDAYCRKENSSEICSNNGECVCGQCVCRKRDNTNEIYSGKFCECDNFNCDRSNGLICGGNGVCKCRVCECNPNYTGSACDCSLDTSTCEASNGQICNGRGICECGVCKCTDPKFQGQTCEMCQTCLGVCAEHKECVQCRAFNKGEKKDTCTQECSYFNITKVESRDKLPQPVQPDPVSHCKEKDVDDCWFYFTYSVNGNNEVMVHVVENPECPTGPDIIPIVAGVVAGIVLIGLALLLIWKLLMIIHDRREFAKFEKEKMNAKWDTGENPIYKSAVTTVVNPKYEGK
Sequence of α4β1 (P05556 21-798, one chain of several): as above

In general, IC50 refers to the concentration at which inhibition is half-maximal. As to `CC(C)C(=O)Nc1ccc(C[C@H](NC(=O)[C@@H]2C3CCC(CC3)N2S(=O)(=O)c2ccccc2)C(=O)O)cc1` [Cpd 69, 4-[(2-methyl-1-oxopropyl)amino]-N-[[(3S)-2-(phenylsulfonyl)-2-azabicyclo[2.2.2]oct-3-yl]carbonyl]-L-phenylalanine], the values for the IC50 on α4β1 integrin receptor (setting [3]) and at human α4β7 (setting [4]) were 0.455 µM and 1.67 µM, respectively.

In the case of `O=C(O)[C@H](Cc1ccc(NC(=O)[C@@H]2C3CCC(CC3)N2S(=O)(=O)c2ccccc2)cc1)NC(=O)[C@@H]1C2CCC(CC2)N1S(=O)(=O)c1ccccc1` [Cpd 70, 4-[[[(3S)-2-(phenylsulfonyl)-2-azabicyclo[2.2.2]oct-3-yl]carbonyl]amino]-N-[[(3S)-2-(phenylsulfonyl)-2-azabicyclo[2.2.2]oct-3-yl]carbonyl]-L-phenylalanine], the IC50 on α4β1 integrin receptor (setting [3]) was found to be 0.37 µM; on human α4β7 (setting [4]) it was 2.03 µM.

For the compound `O=C(Nc1ccc(C[C@H](NC(=O)[C@@H]2C3CCC(CC3)N2S(=O)(=O)c2cccs2)C(=O)O)cc1)c1c(Cl)cncc1Cl` [Cpd 71a, 4-[[(3,5-dichloro-4-pyridinyl)carbonyl]amino]-N-[[(3S)-2-(2-thienylsulfonyl)-2-azabicyclo[2.2.2]oct-3-yl]carbonyl]-L-phenylalanine], the IC50 at α4β1 integrin receptor (Table I, racemic mixtures and resolved (S,S) and (R,S) diastereomers, read-out: Antagonist IC50 Activity α4β1) was determined as 0.006 µM; at α4β1 integrin receptor (setting [3]), 0.36 µM; on human α4β7 (Table I, racemic mixtures and resolved (S,S) and (R,S) diastereomers, read-out: Antagonist IC50 Activity α4β7) it was 0.033 µM.

On to Phenylacetyl-Leu-Asp-Phe-D-Pro-NH2, for which the IC50 on α4β1 is 2 µM. Moreover, the “efficacy in heterotopic heart allograft model” value in assay [1] was “effective”. In addition, in assay [2], the “efficacy in oxazolone-induced contact hypersensitivity” value was “efficacy similar to the α4 antibody PS/2”.
